# Source: US12577245B2, “Sulfonyl benzamide derivatives as Bcl-2 inhibitors” (ASCENTAGE PHARMA (SUZHOU) CO., LTD., priority 2021, dated 2026)
# Tests used:
# MV-4-11 cells = assay: CCK-8 cell viability assay in MV-4-11 cells; format: cell-based; conditions: Homo sapiens, MV4-11, 72 h, 10% FBS, 3 days
# Procedure: MV-4-11 cells were obtained from University of Michigan. Cells were maintained in the RPMI-1640 medium with 10% FBS and 1% P/S at 37° C. and an atmosphere of 5% CO2.
# • The effect of representative Compounds of the Disclosure on cell viability was determined using Cell Counting Kit-8 (CCK-8) assay (Shanghai Life iLab Biotech) according to the manufacturer's instructions. Each tested compound was serially diluted in culture medium, and 100 μL of the compound dilution was added to the corresponding well of the cell plate. 100 μL of MV-4-11 cell suspension (20000 cells/well) in culture medium were seeded into 96-well plates. The cells were incubated at 37° C. in an atmosphere of 5% CO2 for 3 days. At the end of 3 days, 20 μL of CCK-8 solution was added to each well of the plate and incubated for 1-4 hours. The plates were read at 450 nm on the Biotek plate reader. The readings were normalized to the vehicle cells, and the IC50 was calculated using GraphPad Prism 8 software.
# RS4; 11Bcl-2-G101V cells = assay: CellTiter-Glo (CTG) cell viability assay in RS4;11-Bcl-2-G101V cells; format: cell-based; conditions: 72 h, 10% FBS, 3 days
# Procedure: RS4; 11Bcl-2-G101V, RS4; 11Bcl-2-D103E, RS4; 11Bcl-2-V156D and RS4; 11Bcl-2-G101V-D103E cells were obtained from Cobioer Biosciences. Cells were maintained in the RPMI-1640 medium with 10% FBS, 1% P/S and puromycin (1 μg/mL) at 37° C. and an atmosphere of 5% CO2.
# • The effect of representative Compounds of the Disclosure on cell viability was determined using CellTiter-Glo® (CTG) luminescent cell viability assay (Promega, USA) according to the manufacturer's instructions. 95 μL of cell suspension (10000 cells/well) in culture medium were seeded into 96-well plates and cultured 4 hours. Each tested compound was serially diluted in blank culture medium, and 5 μL of the compound dilution was added to the corresponding well of the cell plate. After the addition of the tested compound, the cells were incubated at 37° C. in an atmosphere of 5% CO2 for 3 days. At the end of 3 days, 30 μL of CTG solution was added to each well of the plate and mix contents for 2 minutes on an orbital shaker. Allow the plate to incubate at room temperature for 15 mins to stabilize signal and record RLU on the Biotek plate reader. The readings were normalized to the vehicle cells, and the IC50 was calculated using GraphPad Prism 8 software.
IC50 (MV-4-11 cells),IC50 (RS4; 11Bcl-2-G101V cells),Structure (SMILES)
54 nM,3.25 µM,"Cc1ccsc1C1=C(CN2CCN(c3ccc(C(=O)NS(=O)(=O)c4ccc(NCC5CCOCC5)c([N+](=O)[O-])c4)c(Oc4cnc5[nH]ccc5c4)c3)CC2)CCC(C)(C)C1 [Example 4, 2-((1H-pyrrolo[2,3-b]pyridin-5-yl)oxy)-4-(4-((4,4-dimethyl-2-(3-methylthiophen-2-yl)cyclohex-1-en-1-yl)methyl)piperazin-1-yl)-N-((3-nitro-4-(((tetrahydro-2H-pyran-4-yl)methyl)amino)phenyl)sulfonyl)benzamide]"
79 nM,3.82 µM,"Cc1csc(C2=C(CN3CCN(c4ccc(C(=O)NS(=O)(=O)c5ccc(NCC6CCOCC6)c([N+](=O)[O-])c5)c(Oc5cnc6[nH]ccc6c5)c4)CC3)CCC(C)(C)C2)c1 [Example 5, 2-((1H-pyrrolo[2,3-b]pyridin-5-yl)oxy)-4-(4-((4,4-dimethyl-2-(4-methylthiophen-2-yl)cyclohex-1-en-1-yl)methyl)piperazin-1-yl)-N-((3-nitro-4-(((tetrahydro-2H-pyran-4-yl)methyl)amino)phenyl)sulfonyl)benzamide]"
209 nM,4.27 µM,"CC(C)c1cscc1C1=C(CN2CCN(c3ccc(C(=O)NS(=O)(=O)c4ccc(NCC5CCOCC5)c([N+](=O)[O-])c4)c(Oc4cnc5[nH]ccc5c4)c3)CC2)CCC(C)(C)C1 [Example 7, 2-((1H-pyrrolo[2,3-b]pyridin-5-yl)oxy)-4-(4-((2-(4-isopropylthiophen-3-yl)-4,4-dimethylcyclohex-1-en-1-yl)methyl)piperazin-1-yl)-N-((3-nitro-4-(((tetrahydro-2H-pyran-4-yl)methyl)amino)phenyl)sulfonyl)benzamide]"
167 nM,5.42 µM,"CC(C)c1cscc1C1=C(CN2CCN(c3ccc(C(=O)NS(=O)(=O)c4ccc(NC[C@H]5COCCO5)c([N+](=O)[O-])c4)c(Oc4cnc5[nH]ccc5c4)c3)CC2)CCC(C)(C)C1 [Example 9, (S)—N-((4-(((1,4-dioxan-2-yl)methyl)amino)-3-nitrophenyl)sulfonyl)-2-((1H-pyrrolo[2,3-b]pyridin-5-yl)oxy)-4-(4-((2-(4-isopropylthiophen-3-yl)-4,4-dimethylcyclohex-1-en-1-yl)methyl)piperazin-1-yl)benzamide]"
164 nM,4.03 µM,"CC(C)c1ccc(C2=C(CN3CCN(c4ccc(C(=O)NS(=O)(=O)c5ccc(NCC6CCOCC6)c([N+](=O)[O-])c5)c(Oc5cnc6[nH]ccc6c5)c4)CC3)CCC(C)(C)C2)s1 [Example 12, 2-((1H-pyrrolo[2,3-b]pyridin-5-yl)oxy)-4-(4-((2-(5-isopropylthiophen-2-yl)-4,4-dimethylcyclohex-1-en-1-yl)methyl)piperazin-1-yl)-N-((3-nitro-4-(((tetrahydro-2H-pyran-4-yl)methyl)amino)phenyl)sulfonyl)benzamide]"
25 nM,1.79 µM,"CC(C)c1sccc1C1=C(CN2CCN(c3ccc(C(=O)NS(=O)(=O)c4ccc(NC[C@H]5COCCO5)c([N+](=O)[O-])c4)c(Oc4cnc5[nH]ccc5c4)c3)CC2)CCC(C)(C)C1 [Example 13, (S)—N-((4-(((1,4-dioxan-2-yl)methyl)amino)-3-nitrophenyl)sulfonyl)-2-((1H-pyrrolo[2,3-b]pyridin-5-yl)oxy)-4-(4-((2-(2-isopropylthiophen-3-yl)-4,4-dimethylcyclohex-1-en-1-yl)methyl)piperazin-1-yl)benzamide]"
98 nM,2.66 µM,"CC(C)c1ccc(C2=C(CN3CCN(c4ccc(C(=O)NS(=O)(=O)c5ccc(NC[C@H]6COCCO6)c([N+](=O)[O-])c5)c(Oc5cnc6[nH]ccc6c5)c4)CC3)CCC(C)(C)C2)s1 [Example 14, (S)—N-((4-(((1,4-dioxan-2-yl)methyl)amino)-3-nitrophenyl)sulfonyl)-2-((1H-pyrrolo[2,3-b]pyridin-5-yl)oxy)-4-(4-((2-(5-isopropylthiophen-2-yl)-4,4-dimethylcyclohex-1-en-1-yl)methyl)piperazin-1-yl)benzamide]"
> 1000 nM,> 10 µM,"CC1(C)CCC(CN2CCN(c3ccc(C(=O)NS(=O)(=O)c4ccc(NC[C@H]5COCCO5)c([N+](=O)[O-])c4)c(Oc4cnc5[nH]ccc5c4)c3)CC2)=C(c2cc(Nc3ccc(F)cc3F)cs2)C1 [Example 20, (S)—N-((4-(((1,4-dioxan-2-yl)methyl)amino)-3-nitrophenyl)sulfonyl)-2-((1H-pyrrolo[2,3-b]pyridin-5-yl)oxy)-4-(4-((2-(4-((2,4-difluorophenyl)amino)thiophen-2-yl)-4,4-dimethylcyclohex-1-en-1-yl)methyl)piperazin-1-yl)benzamide]"
126 nM,1.04 µM,CC1(C)CCC(CN2CCN(c3ccc(C(=O)NS(=O)(=O)c4ccc(NC[C@H]5COCCO5)c([N+](=O)[O-])c4)c(Oc4cnc5[nH]ccc5c4)c3)CC2)=C(c2cc(CN3CC4(C3)CN(S(C)(=O)=O)C4)cs2)C1 [Example 27]
5 nM,0.19 µM,"CC1(C)CCC(CN2CCN(c3ccc(C(=O)NS(=O)(=O)c4ccc(NC[C@H]5CC[C@](C)(O)CC5)c([N+](=O)[O-])c4)c(Oc4cnc5[nH]ccc5c4)c3)CC2)=C(c2cc(-c3c(F)cc(F)cc3F)cs2)C1 [Example 47, 2-((1H-pyrrolo[2,3-b]pyridin-5-yl)oxy)-4-(4-((4,4-dimethyl-2-(4-(2,4,6-trifluorophenyl)thiophen-2-yl)cyclohex-1-en-1-yl)methyl)piperazin-1-yl)-N-((4-((((1r,4r)-4-hydroxy-4-methylcyclohexyl)methyl)amino)-3-nitrophenyl)sulfonyl)benzamide]"
296 nM,4.99 µM,"CC1(C)CCC(CN2CCN(c3ccc(C(=O)NS(=O)(=O)c4ccc(NC[C@H]5COCCO5)c([N+](=O)[O-])c4)c(Oc4cnc5[nH]ccc5c4)c3)CC2)=C(c2cc(-c3ccc(F)cn3)cs2)C1 [Example 52, (S)—N-((4-(((1,4-dioxan-2-yl)methyl)amino)-3-nitrophenyl)sulfonyl)-2-((1H-pyrrolo[2,3-b]pyridin-5-yl)oxy)-4-(4-((2-(4-(5-fluoropyridin-2-yl)thiophen-2-yl)-4,4-dimethylcyclohex-1-en-1-yl)methyl)piperazin-1-yl)benzamide]"
1210 nM,5.81 µM,"CC1(C)CCC(CN2CCN(c3ccc(C(=O)NS(=O)(=O)c4ccc(NC[C@H]5COCCO5)c([N+](=O)[O-])c4)c(Oc4cnc5[nH]ccc5c4)c3)CC2)=C(c2cc(-c3c(F)cc(F)c4cc[nH]c34)cs2)C1 [Example 57, (S)—N-((4-(((1,4-dioxan-2-yl)methyl)amino)-3-nitrophenyl)sulfonyl)-2-((1H-pyrrolo[2,3-b]pyridin-5-yl)oxy)-4-(4-((2-(4-(4,6-difluoro-1H-indol-7-yl)thiophen-2-yl)-4,4-dimethylcyclohex-1-en-1-yl)methyl)piperazin-1-yl)benzamide]"
107 nM,3.18 µM,"CC1(C)CCC(CN2CCN(c3ccc(C(=O)NS(=O)(=O)c4ccc(NC[C@H]5CC[C@](C)(O)CC5)c([N+](=O)[O-])c4)c(Oc4cnc5[nH]ccc5c4)c3)CC2)=C(c2cc(C#Cc3ccc(F)cc3)cs2)C1 [Example 61, 2-((1H-pyrrolo[2,3-b]pyridin-5-yl)oxy)-4-(4-((2-(4-((4-fluorophenyl)ethynyl)thiophen-2-yl)-4,4-dimethylcyclohex-1-en-1-yl)methyl)piperazin-1-yl)-N-((4-((((1r,4r)-4-hydroxy-4-methylcyclohexyl)methyl)amino)-3-nitrophenyl)sulfonyl)benzamide]"
192 nM,0.598 µM,"Cc1cc(C(C)(C)O)cc(C)c1-c1csc(C2=C(CN3CCN(c4ccc(C(=O)NS(=O)(=O)c5ccc(NC[C@H]6CC[C@](C)(O)CC6)c([N+](=O)[O-])c5)c(Oc5cnc6[nH]ccc6c5)c4)CC3)CCC(C)(C)C2)c1 [Example 65, 2-((1H-pyrrolo[2,3-b]pyridin-5-yl)oxy)-N-((4-((((1r,4r)-4-hydroxy-4-methylcyclohexyl)methyl)amino)-3-nitrophenyl)sulfonyl)-4-(4-((2-(4-(4-(2-hydroxypropan-2-yl)-2,6-dimethylphenyl)thiophen-2-yl)-4,4-dimethylcyclohex-1-en-1-yl)methyl)piperazin-1-yl)benzamide]"
